Results on four compounds are retold here after US10793530B2, “Benzylaminopyrazinylcyclopropanecarboxylic acids, pharmaceutical compositions and uses thereof” (Boehringer Ingelheim International GmbH, priority 2017, dated 2020).

In brackets after ≈: the same amount, converted by molar mass.

The nature of data set [1]: Aqueous solubility (buffer vs acetonitrile/water, LC-UV). The format is physicochemical. Conditions: kinetic from dmso stock, buffer pH 6.8, 24 h of shaking, DMSO concentration of 2.5%. As to the method:
The aqueous solubility of the compounds of the invention is determined by comparing the amount dissolved in buffer to the amount in an acetonitrile/water (1/1) solution. Starting from a 10 mM DMSO stock solution aliquots are diluted with acetonitrile/water (1/1) or buffer, respectively. After 24 h of shaking, the solutions are filtrated and analyzed by LC-UV. The amount dissolved in buffer is compared to the amount in the acetonitrile solution. Solubility is usually being measured from 0.001 to 0.125 mg/mL at a DMSO concentration of 2.5%. If more than 90% of the compound is dissolved in buffer, the value is marked with “>”.

The next data set addresses human GPR40 receptor (Homo sapiens, UniProt O14842). In words: IP1 accumulation measurements using the IPOne assay system. The format is cell-based. The conditions noted are these: 1321N1 cells stably expressing human GPR40 receptor; stimulated 1 h at 37° C. As to the method: IP1 is assayed according to the manufacturers description (Cisbio Bioassays, France). In brief, the assay is started by substitution of the culture medium by stimulation buffer (Hepes 10 mM, CaCl2 1 mM, MgCl2 0.5 mM, KCl 4.2 mM, NaCl 146 mM, glucose 5.5 mM and LiCl 50 mM, pH 7.4). Cells are stimulated for 1 h at 37° C., 5% CO2 by addition of the compounds that are diluted in stimulation buffer containing LiCl. Assays are stopped by adding HTRF-conjugates (IP1-d2 and Anti-IP1 cryptate Tb) and lysis buffer, provided by the manufacturer. After an incubation time of 1 h at room temperature plates are measured using an EnVision™, Perkin Elmer. The obtained fluorescence ratios at 665/615 […] are then used to calculate the pEC50 values using Assay Explorer 3.3 Software (Accelrys, Inc.) by interpolation using an IP1 reference curve and subsequent sigmoidal curve fitting allowing for a variable hill slope.

Chain of human GPR40 receptor (O14842 whole entry): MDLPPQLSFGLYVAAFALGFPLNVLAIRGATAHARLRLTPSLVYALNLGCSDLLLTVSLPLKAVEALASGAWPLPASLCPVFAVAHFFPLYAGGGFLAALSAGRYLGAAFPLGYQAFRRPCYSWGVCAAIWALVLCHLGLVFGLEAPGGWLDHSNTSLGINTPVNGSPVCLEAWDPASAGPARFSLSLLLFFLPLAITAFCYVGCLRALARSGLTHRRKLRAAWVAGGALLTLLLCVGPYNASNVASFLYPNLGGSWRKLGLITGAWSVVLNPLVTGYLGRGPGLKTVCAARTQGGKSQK

For the compound `Cc1cc(OCCC(C)(C)O)cc(C)c1-c1ccc(F)c2c1CC[C@H]2Oc1ccc([C@H]2C[C@@H]2C(=O)O)cc1` [Example 17 in WO 2013/178575, reference compound], the solubility (commonly how much of the substance goes into solution per volume) at 24 h in data set [1] was less than 1 µg/mL.

Regarding `Cc1cc(OCCC(C)(C)O)cc(C)c1-c1ccc(F)c(CNc2cnc([C@H]3C[C@@H]3C(=O)O)cn2)c1` [Example 19], at human GPR40 receptor, the midpoint of the response, the EC50, lay at 16 nM. This compound had a solubility at 24 h in data set [1] of 72 µg/mL (≈ 146 µM).

For `Cc1cc(-c2nnn(C)n2)cc(C)c1-c1ccc(F)c(CNc2cnc([C@H]3C[C@@H]3C(=O)O)cn2)c1` [Example 26], it took 6 nM to reach a half-maximal effect at human GPR40 receptor (EC50). The compound also had a solubility at 24 h in data set [1] of 47 µg/mL (≈ 99.3 µM).

`Cc1cc(-c2nnn(C)n2)cc(C)c1-c1ccc(F)c2c1CC[C@H]2Oc1ccc([C@H]2C[C@@H]2C(=O)O)cc1` [Example 45 in WO 2013/178575, reference compound] showed a solubility at 24 h in data set [1] of less than 1 µg/mL.
